# In publication PMC9757636, “The effectiveness of newly synthesized quaternary ammonium salts differing in chain length and type of counterion against priority human pathogens” (Scientific Reports, 2022):
# Marks after values point to notes of the source that are not given here.
# What was measured:
# [1] = test system: S. epidermidis B374 biofilm; test: Biofilm-oriented antiseptics test (BOAT); assay type: cell-based, Staphylococcus epidermidis; details: 640 µM
# Source text: Colonies were then counted.
# S. epidermidis B374 [2] = test: MIC/MBC microdilution; assay type: cell-based, Staphylococcus epidermidis; details: S. epidermidis B374; for Minimal bactericidal concentration (*MBC): 99.9% reduction; for Minimal inhibitory concentration (MIC): 24 h, 37 °C, >90% growth inhibition
# Protocol: (§1) The minimum inhibitory concentration (MIC) of the tested monomeric QAS was performed using the microdilution method according to CLSI recommendation (M27-A3). Concentrations from 10 to 1280 µM were analyzed. Strains were incubated with or without compounds (growth control) for 24 h at 37 °C. Three independent replicates were performed. The MIC value was determined spectrophotometrically and the concentration that inhibited more than 90% of growth was determined. Optical density was measured at λ = 590 nm using a 96-well microplate reader (Bio-Rad Universal Hood II).
# (§2) To determine the minimum bactericidal concentration (MBC), 10 µL of bacterial suspension incubated with monomeric QAS (MIC concentration and two times higher) was transferred to plates with LB (1% tryptone, 1% yeast extract, 0.5% NaCl) medium. […] The concentration that reduced 99.9% of microbial growth was determined as MBC[54].
# [3] = test system: S. epidermidis ATCC 35984; test: MIC/MBC microdilution; assay type: cell-based, Staphylococcus epidermidis
# Protocol: as §1, §2
# S. epidermidis SI8 = test: MIC/MBC microdilution; assay type: cell-based, Staphylococcus epidermidis
# Protocol: as §1, §2
# P. aeruginosa ATCC 27853 = test: MIC/MBC microdilution; assay type: cell-based, Pseudomonas aeruginosa
# Protocol: as §1, §2
# P. aeruginosa PAO1 [4] = test: MIC/MBC microdilution; assay type: cell-based, Pseudomonas aeruginosa
# Protocol: as §1, §2
# [5] = test system: S. epidermidis ATCC 35984; test: Adhesion to stainless steel; assay type: cell-based, Staphylococcus epidermidis; details: 160 µM
# S. epidermidis B374 [6] = test: Adhesion to polystyrene plate; assay type: cell-based, Staphylococcus epidermidis; details: 160 µM
# Protocol: (§3) Adhesion analysis to polystyrene surfaces was determined according to the method of Rodrigues et al. with modifications. Polystyrene 96-well plates were incubated with the respective compound concentrations (10–1280 µM) for 4 h at 37 °C with 100 rpm shaking. The plates were then washed with miliQ and inoculated with 100 µL of bacterial suspension (OD = 0.4–0.6). Plates were incubated for 6 h at 37 °C with 100 rpm shaking. Wells were rinsed and fixed for 20 min at 60 °C. They were then […] with 0.1% crystal violet solution for 5 min. The wells were washed with miliQ until the unfixed dye was completely eluted. The absorbance at λ = 590 nm was measured using a reader (Bio-Rad Universal Hood II). The positive control was a surface not treated with QAS. Three independent trials were performed.
# [7] = test system: Salmonella typhimurium TA100; test: Mutagenicity (Ames test); assay type: cell-based; details: for Number of colonies: ± SD
# Protocol: (§4) Two reference strains of Salmonella Typhimurium TA98 and Salmonella Typhimurium TA100, deficient in histidine synthesis, were used for this study according to the method proposed by Ames et al. with modifications. […] The mixture was mixed and poured onto a Davis minimal medium plate. The mixture without the test compound was used as a negative control. The positive control was a mixture of bacterial culture, biotin-histidine solution, and sodium azide (at a concentration of 15 μg/mL for strain TA100) or acriflavine (at a concentration of 100 μg/mL for strain TA98). Plates were incubated for 48 h at 37 °C, and then colonies were counted. The mutagenicity ratio (MR), the ratio of the number of revertants grown in the presence of the test compound to the number of spontaneously occurring revertants (negative control), was calculated. A mutagenic ratio equal to or greater than 1.7 indicates the mutagenic potential of the tested compounds. The study was performed in three times.
# [8] = test system: Salmonella typhimurium TA98; test: Mutagenicity (Ames test); assay type: cell-based; details: for Number of colonies: ± SD
# Protocol: as §4
# [9] = Critical micelle concentration by conductometric measurements; assay type: physicochemical; details: aqueous solution, 25 °C
# Protocol: Values of critical micelle concentrations (CMC) of cationic surfactants were measured conductrometrically. N5721 conductometer (Tel-Eko Projekt sp z o.o., Poland), equipped with N5981 probe, was calibrated using 0.1 M, 0.01 M and 0.001 M KCl aqueous solutions (conductivities equal to 1.287 S/m, 0.141 S/m and 0.0147 S/m, respectively) and used without temperature compensation mode (constant temperature 25 °C was kept during all calibration procedures and measurements). Values of specific conductivities of at least 15 different concentrations for each surfactant were measured and plotted versus concentration; the discontinuity point was used to determine critical micelle concentration.
# [10] = test system: P. aeruginosa PAO1 biofilm; test: Biofilm eradication; assay type: cell-based, Pseudomonas aeruginosa; details: 20 µM, 4 h
# Protocol: (§5) Biofilm eradication assay was performed according to the method of Christensen et al. with modifications. A standardized bacterial (OD = 0.6) suspension of 100 µL was spotted into a 96-well polystyrene plate. They were incubated for 24 h at 37 °C. Cultures were removed, the plate was washed and then concentrations of QAS ([…]) were added, incubated for 4 h at 37 °C with 100 rpm shaking. The wells were washed with miliQ and fixed at 60 °C for 20 min. The wells were […] with 0.1% crystal violet solution for 5 min. The wells were washed with miliQ until the unfixed dye was completely eluted. The absorbance at λ = 590 nm was measured using a reader (Bio-Rad Universal Hood II). The positive control was an untreated biofilm. Three independent test trials were performed.
# [11] = test system: S. epidermidis B374 biofilm; test: Biofilm eradication; assay type: cell-based, Staphylococcus epidermidis; details: 160 µM, 4 h
# Protocol: as §5
# S. aureus ATCC 6538 = test: MIC/MBC microdilution; assay type: cell-based, Staphylococcus aureus; details: S. aureus ATCC 6538; for Minimal bactericidal concentration (*MBC): 99.9% reduction; for Minimal inhibitory concentration (MIC): 24 h, 37 °C, >90% growth inhibition
# Protocol: as §1, §2
# S. aureus MRSA R98 = test: MIC/MBC microdilution; assay type: cell-based, Staphylococcus aureus; details: for Minimal bactericidal concentration (*MBC): 99.9% reduction; for Minimal inhibitory concentration (MIC): 24 h, 37 °C, >90% growth inhibition
# Protocol: as §1, §2
# E. coli H64 = test: MIC/MBC microdilution; assay type: cell-based, Escherichia coli
# Protocol: as §1, §2
# E. coli ATCC 11229 = test: MIC/MBC microdilution; assay type: cell-based, Escherichia coli; details: E. coli ATCC 11229; for MBC: 99.9% reduction, read-out: Minimal bactericidal concentration (*MBC); for MIC: 24 h, 37 °C, >90% growth inhibition, read-out: Minimal inhibitory concentration (MIC)
# Protocol: as §1, §2
# P. aeruginosa PAO1 [12] = test: Adhesion to stainless steel; assay type: cell-based, Pseudomonas aeruginosa
# P. aeruginosa PAO1 [13] = test: Adhesion to glass; assay type: cell-based, Pseudomonas aeruginosa; details: concentration not given
# S. epidermidis B374 [14] = test: Adhesion to stainless steel; assay type: cell-based, Staphylococcus epidermidis; details: Staphylococcus epidermidis, 1280 µM, ranges given over several strains
# [15] = test system: S. epidermidis ATCC 35984; test: Adhesion to polystyrene plate; assay type: cell-based, Staphylococcus epidermidis; details: concentration not given
# Protocol: as §3
# P. aeruginosa PAO1 [16] = test: Adhesion to polystyrene plate; assay type: cell-based, Pseudomonas aeruginosa; details: concentration not given
# Protocol: as §3
# [17] = test system: S. epidermidis ATCC 35984 biofilm; test: Biofilm eradication; assay type: cell-based, Staphylococcus epidermidis; details: 10 µM, 4 h
# Protocol: as §5
# [18] = 24 h, 37 °C, >90% growth inhibition
SMILES,Minimal bactericidal concentration (*MBC) (S. epidermidis B374 [2]),Minimal inhibitory concentration (MIC) (S. epidermidis B374 [2]),reduction of adhesion to stainless steel [5],reduction of adhesion to polystyrene (S. epidermidis B374 [6]),Number of colonies ([7]; ¼ MIC),Mutagenicity index ([7]; ½ MIC),Number of colonies ([7]; ½ MIC),Mutagenicity index ([8]; ¼ MIC),Number of colonies ([8]; ¼ MIC),Mutagenicity index ([8]; ½ MIC),Number of colonies ([8]; ½ MIC),CMC [9] [mol/L],biofilm eradication [10],Minimal bactericidal concentration (*MBC) (S. aureus ATCC 6538),Minimal inhibitory concentration (MIC) (S. aureus ATCC 6538),Minimal bactericidal concentration (*MBC) (S. aureus MRSA R98),Minimal inhibitory concentration (MIC) (S. aureus MRSA R98),MBC (E. coli ATCC 11229) [µM],MIC (E. coli ATCC 11229) [µM],other results
CC(=O)[O-].CCCCCCCCCCCCCCCC(=O)N(C)CCC[N+](C)(C)C [AcC16],40 *40 µM,40 *40 µM,approximately 93%,approximately 44%,107.5 ± 2.1,0.66,132.5 ± 13.4,0.93,23.7 ± 4.7,1.11,28.3 ± 6.4,0.0016,50–60%,80 *80 µM,80 *80 µM,10 *10 µM,10 *10 µM,160,80,"cell survival in biofilm (BOAT) ([1]; 30 min): 30%; cell survival in biofilm (BOAT) ([1]; 60 min): 9.5%; MBC ([3]; Staphylococcus epidermidis, ATCC35984, 99.9% reduction, read-out: Minimal bactericidal concentration (*MBC)): 640 µM; MIC ([3]; Staphylococcus epidermidis, ATCC35984, 24 h, 37 °C, >90% growth inhibition, read-out: Minimal inhibitory concentration (MIC)): 640 µM; MBC (S. epidermidis SI8; Staphylococcus epidermidis, 99.9% reduction, read-out: Minimal bactericidal concentration (*MBC)): 10 µM; MIC (S. epidermidis SI8; Staphylococcus epidermidis, 24 h, 37 °C, >90% growth inhibition, read-out: Minimal inhibitory concentration (MIC)): 10 µM; MIC (P. aeruginosa ATCC 27853; Pseudomonas aeruginosa, ATCC27853, 24 h, P. aeruginosa ATCC 27853, 24 h, 37 °C, >90% growth inhibition, read-out: Minimal inhibitory concentration (MIC)): > 1280 µM; MBC (P. aeruginosa ATCC 27853; Pseudomonas aeruginosa, ATCC27853, P. aeruginosa ATCC 27853, 99.9% reduction, read-out: Minimal bactericidal concentration (*MBC)): > 1280 µM; MBC (P. aeruginosa PAO1 [4]; Pseudomonas aeruginosa, 99.9% reduction, read-out: Minimal bactericidal concentration (*MBC)): > 1280 µM; MIC (P. aeruginosa PAO1 [4]; Pseudomonas aeruginosa, 24 h, 37 °C, >90% growth inhibition, read-out: Minimal inhibitory concentration (MIC)): > 1280 µM; Mutagenicity index ([7]; ¼ MIC): 0.54; biofilm eradication [11]: 70–80%; MIC (E. coli H64; Escherichia coli, H64, 24 h, E. coli H64, 24 h, 37 °C, >90% growth inhibition, read-out: Minimal inhibitory concentration (MIC)): 160 µM; MBC (E. coli H64; Escherichia coli, H64, E. coli H64, 99.9% reduction, read-out: Minimal bactericidal concentration (*MBC)): 320 µM; reduction of adhesion to stainless steel (P. aeruginosa PAO1 [12]; P. aeruginosa PAO1, 160 µM): 58%"
CCCCCCCCCCCCCCCC(=O)N(C)CCC[N+](C)(C)C.[Br-] [BrC16],10 *10 µM,10 *10 µM,77%,approximately 85%,151.3 ± 3.5,1.06,134 ± 1,2.76,70.5 ± 12,1.84,47 ± 14.1,0.00073,50–60%,320 *320 µM,320 *320 µM,320 *320 µM,320 *320 µM,1280,640,"Minimal bactericidal concentration (*MBC) ([3]; 99.9% reduction): 640 *640 µM; Minimal inhibitory concentration (MIC) [3, 18]: 640 *640 µM; Minimal bactericidal concentration (*MBC) (S. epidermidis SI8; 99.9% reduction): 10 *10 µM; Minimal inhibitory concentration (MIC) (S. epidermidis SI8; [18]): 10 *10 µM; Minimal bactericidal concentration (*MBC) (P. aeruginosa ATCC 27853; P. aeruginosa ATCC 27853, 99.9% reduction): > 1280 * > 1280 µM; Minimal inhibitory concentration (MIC) (P. aeruginosa ATCC 27853; P. aeruginosa ATCC 27853, 24 h, 37 °C, >90% growth inhibition): > 1280 * > 1280 µM; Minimal bactericidal concentration (*MBC) (P. aeruginosa PAO1 [4]; 99.9% reduction): > 1280 * > 1280 µM; Minimal inhibitory concentration (MIC) (P. aeruginosa PAO1 [4]; [18]): > 1280 * > 1280 µM; reduction of adhesion to glass (P. aeruginosa PAO1 [13]): approximately 20%; inhibition at 1280 µM (S. epidermidis B374 [14]): 17 to 22%; reduction of adhesion to polystyrene [15]: did not reduce the adhesion; mutagenicity index (MR) ([7]; base pair substitution type mutations, MR >= 1.7 indicates mutagenic potential): < 1.7; mutagenicity index (MR) ([8]; reading frame shift type mutation, MR >= 1.7 indicates mutagenic potential): above 1.7; reduction of adhesion to polystyrene (P. aeruginosa PAO1 [16]): did not reduce the adhesion; biofilm destruction [17]: approximately 40%; Minimal bactericidal concentration (*MBC) (E. coli H64; E. coli H64, 99.9% reduction): 160 *160 µM; Minimal inhibitory concentration (MIC) (E. coli H64; E. coli H64, 24 h, 37 °C, >90% growth inhibition): 160 *160 µM; inhibition at 1280 µM (P. aeruginosa PAO1 [12]; Pseudomonas aeruginosa, PAO1, read-out: inhibition of adhesion to stainless steel): 17 to 22%"
